Source: PMC7265341, “Quantifying CDK inhibitor selectivity in live cells” (Nature Communications, 2020)
Read-outs that look alike come from different tables or passages of the source.

Key:
CDK13/Cyclin K = CDK13/Cyclin K (Homo sapiens, UniProt Q14004); assay: NanoBRET live-cell target engagement, CDK13-NanoLuc/Cyclin K in HEK-293; assay type: binding; conditions: 10µM, read-out: CDK13/K Inhibition at 10µM (%)
CDK16/Cyclin Y = CDK16/Cyclin Y (Homo sapiens, UniProt Q00536); assay: NanoBRET live-cell target engagement, CDK16-NanoLuc/Cyclin Y in HEK-293; assay type: binding; conditions: 10µM, read-out: CDK16/Y Inhibition at 10µM (%)
CDK2/Cyclin E1 = CDK2/Cyclin E1 (Homo sapiens, UniProt P24941); assay: NanoBRET live-cell target engagement, CDK2-NanoLuc/Cyclin E1 in HEK-293; assay type: binding; conditions: 10µM, read-out: CDK2/E1 Inhibition at 10µM (%)
CDK18/Cyclin Y = CDK18/Cyclin Y (Homo sapiens, UniProt Q07002); assay: NanoBRET live-cell target engagement, CDK18-NanoLuc/Cyclin Y in HEK-293; assay type: binding; conditions: 10µM, read-out: CDK18/Y Inhibition at 10µM (%)
CDK15/Cyclin Y = CDK15/Cyclin Y (Homo sapiens, UniProt Q96Q40); assay: NanoBRET live-cell target engagement, NanoLuc-CDK15/Cyclin Y in HEK-293; assay type: binding; conditions: 10µM, read-out: CDK15/Y Inhibition at 10µM (%)
CDK17/Cyclin Y = CDK17/Cyclin Y (Homo sapiens, UniProt Q00537); assay: NanoBRET live-cell target engagement, CDK17-NanoLuc/Cyclin Y in HEK-293; assay type: binding; conditions: 10µM, read-out: CDK17/Y Inhibition at 10µM (%)
CDK10/Cyclin L2 = CDK10/Cyclin L2 (Homo sapiens, UniProt Q15131); assay: NanoBRET live-cell target engagement, CDK10-NanoLuc/Cyclin L2 in HEK-293; conditions: read-out: CDK10/L2 Inhibition at 10µM (%), 10µM
CDK19/Cyclin C = CDK19/Cyclin C (Homo sapiens, UniProt Q9BWU1); assay: NanoBRET live-cell target engagement, NanoLuc-CDK19/Cyclin C in HEK-293; conditions: read-out: CDK19/C Inhibition at 10µM (%), 10µM
CDK7 = CDK7 (Homo sapiens, UniProt P50613); assay: NanoBRET live-cell target engagement, NanoLuc-CDK7 in HEK-293; assay type: binding; conditions: for inhibition at 10 µM: read-out: CDK7 Inhibition at 10µM (%)
CDK6/Cyclin D1 = CDK6/Cyclin D1 (Homo sapiens, UniProt Q00534); assay: NanoBRET live-cell target engagement, NanoLuc-CDK6/Cyclin D1 in HEK-293; assay type: binding; conditions: for inhibition at 10 µM: read-out: CDK6/D1 Inhibition at 10µM (%); for IC50: read-out: CDK6/D1 IC50
CDK20/Cyclin H = CDK20/Cyclin H (Homo sapiens, UniProt Q8IZL9); assay: NanoBRET live-cell target engagement, NanoLuc-CDK20/Cyclin H in HEK-293; assay type: binding; conditions: 10µM, read-out: CDK20/H Inhibition at 10µM (%)
CDK9/Cyclin K = CDK9/Cyclin K (Homo sapiens, UniProt P50750); assay: NanoBRET live-cell target engagement, NanoLuc-CDK9/Cyclin K in HEK-293; assay type: binding; conditions: 10µM, read-out: CDK9/K Inhibition at 10µM (%)
CDK14/Cyclin Y = CDK14/Cyclin Y (Homo sapiens, UniProt O94921); assay: NanoBRET live-cell target engagement, CDK14-NanoLuc/Cyclin Y in HEK-293; assay type: binding; conditions: 10µM, read-out: CDK14/Y Inhibition at 10µM (%)
CDK1/Cyclin E1 = CDK1/Cyclin E1 (Homo sapiens, UniProt P06493); assay: NanoBRET live-cell target engagement, CDK1-NanoLuc/Cyclin E1 in HEK-293; assay type: binding; conditions: for inhibition at 10 µM: read-out: CDK1/E1 Inhibition at 10µM (%); for IC50: read-out: CDK1/E1 IC50
CDK11B/Cyclin L2 = CDK11B/Cyclin L2 (Homo sapiens, UniProt P21127); assay: NanoBRET live-cell target engagement, CDK11B-NanoLuc/Cyclin L2 in HEK-293; assay type: binding; conditions: 10µM, read-out: CDK11b/L2 Inhibition at 10µM (%)
CDK3/Cyclin E1 = CDK3/Cyclin E1 (Homo sapiens, UniProt Q00526); assay: NanoBRET live-cell target engagement, CDK3-NanoLuc/Cyclin E1 in HEK-293; assay type: binding; conditions: for inhibition at 10 µM: read-out: CDK3/E1 Inhibition at 10µM (%); for IC50: read-out: CDK3/E1 IC50
CDK4/Cyclin D1 = CDK4/Cyclin D1 (Homo sapiens, UniProt P11802); assay: NanoBRET live-cell target engagement, NanoLuc-CDK4/Cyclin D1 in HEK-293; assay type: binding; conditions: for inhibition at 10 µM: read-out: CDK4/D1 Inhibition at 10µM (%); for IC50: read-out: CDK4/D1 IC50
CDK8/Cyclin C = CDK8/Cyclin C (Homo sapiens, UniProt P49336); assay: NanoBRET live-cell target engagement, NanoLuc-CDK8/Cyclin C in HEK-293; assay type: binding; conditions: 10µM, read-out: CDK8/C Inhibition at 10µM (%)
CDK5/CDK5R1 = CDK5/CDK5R1 (Homo sapiens, UniProt Q00535); assay: NanoBRET live-cell target engagement, CDK5-NanoLuc/CDK5R1 in HEK-293; assay type: binding; conditions: for inhibition at 10 µM: read-out: CDK5/CDK5R1 Inhibition at 10µM (%); for IC50: read-out: CDK5/CDK5R1 IC50
CDK12/Cyclin K = CDK12/Cyclin K (Homo sapiens, UniProt Q9NYV4); assay: NanoBRET live-cell target engagement, CDK12-NanoLuc/Cyclin K in HEK-293; assay type: binding; conditions: 10µM, read-out: CDK12/K Inhibition at 10µM (%)

CDK7, sequence (P50613 whole entry): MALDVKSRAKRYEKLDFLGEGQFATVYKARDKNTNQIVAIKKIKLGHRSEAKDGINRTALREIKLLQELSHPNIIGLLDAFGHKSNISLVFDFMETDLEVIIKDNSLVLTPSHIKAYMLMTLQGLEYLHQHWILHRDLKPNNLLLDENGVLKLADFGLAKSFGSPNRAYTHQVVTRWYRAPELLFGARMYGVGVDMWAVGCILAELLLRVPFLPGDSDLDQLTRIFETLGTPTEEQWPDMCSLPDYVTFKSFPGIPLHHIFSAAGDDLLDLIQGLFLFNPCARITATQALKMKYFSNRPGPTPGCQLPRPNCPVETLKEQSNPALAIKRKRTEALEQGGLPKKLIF
CDK1/Cyclin E1, sequence (P06493 whole entry): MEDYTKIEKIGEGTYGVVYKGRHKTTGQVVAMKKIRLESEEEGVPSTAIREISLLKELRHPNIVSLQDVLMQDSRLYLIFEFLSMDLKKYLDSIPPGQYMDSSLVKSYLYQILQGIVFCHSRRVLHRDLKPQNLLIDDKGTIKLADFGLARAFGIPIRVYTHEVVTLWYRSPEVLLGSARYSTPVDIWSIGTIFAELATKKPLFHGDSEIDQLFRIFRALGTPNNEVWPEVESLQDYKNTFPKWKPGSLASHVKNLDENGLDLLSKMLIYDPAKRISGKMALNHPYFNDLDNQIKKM
CDK1/Cyclin E1, sequence (P24864 whole entry partner): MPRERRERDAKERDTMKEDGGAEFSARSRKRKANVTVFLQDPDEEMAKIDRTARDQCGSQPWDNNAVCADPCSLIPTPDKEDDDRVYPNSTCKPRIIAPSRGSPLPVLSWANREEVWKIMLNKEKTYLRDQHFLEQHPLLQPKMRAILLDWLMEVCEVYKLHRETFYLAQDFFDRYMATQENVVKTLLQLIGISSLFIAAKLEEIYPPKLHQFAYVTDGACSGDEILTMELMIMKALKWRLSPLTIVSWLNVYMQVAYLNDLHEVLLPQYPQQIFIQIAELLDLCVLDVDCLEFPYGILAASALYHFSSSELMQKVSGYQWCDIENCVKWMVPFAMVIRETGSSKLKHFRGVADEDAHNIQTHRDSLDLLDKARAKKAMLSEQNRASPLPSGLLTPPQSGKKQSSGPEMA
CDK15/Cyclin Y, sequence (Q96Q40 whole entry): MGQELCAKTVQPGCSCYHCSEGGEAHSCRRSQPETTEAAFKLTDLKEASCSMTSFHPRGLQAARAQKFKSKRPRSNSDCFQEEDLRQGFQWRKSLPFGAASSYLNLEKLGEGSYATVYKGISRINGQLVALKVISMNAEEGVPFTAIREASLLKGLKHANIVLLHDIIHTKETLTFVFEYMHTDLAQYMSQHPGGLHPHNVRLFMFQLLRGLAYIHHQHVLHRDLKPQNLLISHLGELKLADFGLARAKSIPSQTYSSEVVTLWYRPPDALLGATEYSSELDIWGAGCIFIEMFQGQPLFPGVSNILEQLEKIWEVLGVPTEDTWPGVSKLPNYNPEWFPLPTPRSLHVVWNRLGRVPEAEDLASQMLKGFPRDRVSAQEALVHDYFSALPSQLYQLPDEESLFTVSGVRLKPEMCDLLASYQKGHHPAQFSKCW
CDK15/Cyclin Y, sequence (Q8ND76 whole entry partner): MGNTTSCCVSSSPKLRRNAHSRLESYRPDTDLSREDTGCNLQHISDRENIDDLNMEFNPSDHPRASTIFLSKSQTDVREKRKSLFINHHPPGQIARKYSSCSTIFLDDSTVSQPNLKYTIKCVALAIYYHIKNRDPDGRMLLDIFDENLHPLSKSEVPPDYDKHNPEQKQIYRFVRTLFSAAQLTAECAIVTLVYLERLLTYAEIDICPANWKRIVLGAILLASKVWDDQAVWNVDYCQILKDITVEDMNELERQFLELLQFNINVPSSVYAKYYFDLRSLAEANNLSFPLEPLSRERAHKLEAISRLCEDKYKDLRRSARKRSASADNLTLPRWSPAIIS
CDK8/Cyclin C, sequence (P49336 whole entry): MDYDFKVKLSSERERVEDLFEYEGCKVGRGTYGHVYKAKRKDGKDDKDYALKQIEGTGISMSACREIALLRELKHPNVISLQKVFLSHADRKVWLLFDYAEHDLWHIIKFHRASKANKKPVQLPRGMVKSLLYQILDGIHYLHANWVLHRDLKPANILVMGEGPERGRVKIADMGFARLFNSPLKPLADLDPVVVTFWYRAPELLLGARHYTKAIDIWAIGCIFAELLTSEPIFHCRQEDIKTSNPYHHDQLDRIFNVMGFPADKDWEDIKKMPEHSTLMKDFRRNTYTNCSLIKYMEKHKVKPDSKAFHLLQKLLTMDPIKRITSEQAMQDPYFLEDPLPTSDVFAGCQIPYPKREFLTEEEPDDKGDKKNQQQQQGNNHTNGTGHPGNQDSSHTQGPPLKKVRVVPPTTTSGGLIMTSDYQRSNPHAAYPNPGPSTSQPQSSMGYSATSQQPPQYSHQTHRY
CDK8/Cyclin C, sequence (P24863 whole entry partner): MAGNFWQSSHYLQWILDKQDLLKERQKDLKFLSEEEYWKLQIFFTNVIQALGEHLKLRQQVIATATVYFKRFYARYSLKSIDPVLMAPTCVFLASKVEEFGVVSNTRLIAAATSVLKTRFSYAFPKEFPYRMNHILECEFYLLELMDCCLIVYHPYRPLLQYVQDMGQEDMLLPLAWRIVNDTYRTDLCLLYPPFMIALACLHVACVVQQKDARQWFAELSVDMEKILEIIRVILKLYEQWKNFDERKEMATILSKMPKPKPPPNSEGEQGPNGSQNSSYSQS
CDK13/Cyclin K, sequence (O75909 whole entry): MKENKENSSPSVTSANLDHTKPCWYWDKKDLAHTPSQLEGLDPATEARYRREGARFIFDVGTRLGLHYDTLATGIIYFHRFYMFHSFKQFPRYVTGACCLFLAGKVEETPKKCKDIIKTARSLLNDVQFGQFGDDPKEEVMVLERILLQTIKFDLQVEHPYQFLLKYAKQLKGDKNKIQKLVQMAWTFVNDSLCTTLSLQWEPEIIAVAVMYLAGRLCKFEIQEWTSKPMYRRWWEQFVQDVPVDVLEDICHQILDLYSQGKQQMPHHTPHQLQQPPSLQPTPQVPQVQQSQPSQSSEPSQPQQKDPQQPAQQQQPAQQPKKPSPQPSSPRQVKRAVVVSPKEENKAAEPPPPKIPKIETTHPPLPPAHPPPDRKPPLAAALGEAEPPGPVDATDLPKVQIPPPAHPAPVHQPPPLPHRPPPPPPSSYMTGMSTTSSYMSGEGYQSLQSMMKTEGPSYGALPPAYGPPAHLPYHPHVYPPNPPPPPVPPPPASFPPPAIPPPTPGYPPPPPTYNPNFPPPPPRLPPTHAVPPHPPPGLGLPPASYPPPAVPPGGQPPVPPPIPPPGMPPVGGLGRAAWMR
CDK13/Cyclin K, sequence (Q14004 other isoform, or with tags, fused parts or gaps): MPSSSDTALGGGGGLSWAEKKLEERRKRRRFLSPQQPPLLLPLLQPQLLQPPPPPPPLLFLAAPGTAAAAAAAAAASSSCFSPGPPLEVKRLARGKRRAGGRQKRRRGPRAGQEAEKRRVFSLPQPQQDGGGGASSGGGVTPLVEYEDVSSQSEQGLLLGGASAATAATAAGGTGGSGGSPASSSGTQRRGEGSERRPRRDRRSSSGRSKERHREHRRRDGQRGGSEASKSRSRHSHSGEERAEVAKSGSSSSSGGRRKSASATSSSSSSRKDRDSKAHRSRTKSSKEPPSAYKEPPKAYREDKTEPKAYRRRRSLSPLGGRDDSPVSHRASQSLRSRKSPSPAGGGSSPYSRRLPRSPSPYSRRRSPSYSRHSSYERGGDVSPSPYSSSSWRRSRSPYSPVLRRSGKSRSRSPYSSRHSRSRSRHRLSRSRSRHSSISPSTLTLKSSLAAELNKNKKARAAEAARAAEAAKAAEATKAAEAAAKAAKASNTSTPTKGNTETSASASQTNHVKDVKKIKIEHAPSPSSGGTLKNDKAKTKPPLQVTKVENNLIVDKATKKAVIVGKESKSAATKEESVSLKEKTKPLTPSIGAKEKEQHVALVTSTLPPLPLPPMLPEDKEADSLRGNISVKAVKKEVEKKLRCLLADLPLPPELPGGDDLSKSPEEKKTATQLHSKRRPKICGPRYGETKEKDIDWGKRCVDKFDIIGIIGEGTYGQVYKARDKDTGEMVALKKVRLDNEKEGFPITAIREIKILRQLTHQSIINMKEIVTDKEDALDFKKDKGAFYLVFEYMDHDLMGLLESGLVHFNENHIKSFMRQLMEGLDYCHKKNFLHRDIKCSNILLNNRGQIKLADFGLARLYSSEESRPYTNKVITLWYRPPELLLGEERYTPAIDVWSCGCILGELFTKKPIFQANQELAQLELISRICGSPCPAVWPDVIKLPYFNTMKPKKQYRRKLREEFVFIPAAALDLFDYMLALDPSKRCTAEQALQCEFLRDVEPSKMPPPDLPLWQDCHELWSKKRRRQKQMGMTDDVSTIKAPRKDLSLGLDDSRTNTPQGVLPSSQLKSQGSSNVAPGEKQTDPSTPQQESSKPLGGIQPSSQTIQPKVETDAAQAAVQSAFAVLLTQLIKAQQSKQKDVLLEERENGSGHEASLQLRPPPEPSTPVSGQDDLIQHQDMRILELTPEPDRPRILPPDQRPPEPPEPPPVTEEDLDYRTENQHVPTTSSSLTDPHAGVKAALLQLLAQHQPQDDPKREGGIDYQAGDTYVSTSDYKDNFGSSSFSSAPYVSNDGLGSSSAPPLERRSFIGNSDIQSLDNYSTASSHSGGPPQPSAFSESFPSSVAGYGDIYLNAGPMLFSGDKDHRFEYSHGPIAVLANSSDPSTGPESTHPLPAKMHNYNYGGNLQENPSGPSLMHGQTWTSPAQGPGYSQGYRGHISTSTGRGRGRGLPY
CDK10/Cyclin L2, sequence (Q15131 whole entry): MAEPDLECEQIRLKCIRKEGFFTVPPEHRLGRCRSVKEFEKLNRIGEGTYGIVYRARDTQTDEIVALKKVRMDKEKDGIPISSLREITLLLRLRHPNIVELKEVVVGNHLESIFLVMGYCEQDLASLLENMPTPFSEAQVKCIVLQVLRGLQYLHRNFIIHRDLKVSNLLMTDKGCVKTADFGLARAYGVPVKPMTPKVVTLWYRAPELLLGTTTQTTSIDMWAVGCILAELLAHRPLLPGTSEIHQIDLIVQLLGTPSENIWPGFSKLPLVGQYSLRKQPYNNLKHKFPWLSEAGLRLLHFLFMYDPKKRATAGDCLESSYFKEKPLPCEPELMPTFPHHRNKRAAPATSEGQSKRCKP

CC(C)CC(=O)Nc1[nH]nc2c1CN(C(=O)C1CCN(C)CC1)C2(C)C [PHA-793887]
inhibition at 10 µM (CDK13/Cyclin K; average of experiments): 17.1% | inhibition at 10 µM (CDK13/Cyclin K; independent experiment 1): 23.7% | inhibition at 10 µM (CDK13/Cyclin K; independent experiment 2): 10.4% | inhibition at 10 µM (CDK16/Cyclin Y; independent experiment 1): 84.5% | inhibition at 10 µM (CDK16/Cyclin Y; independent experiment 2): 87% | inhibition at 10 µM (CDK2/Cyclin E1; average of experiments): 96% | inhibition at 10 µM (CDK2/Cyclin E1; independent experiment 1): 95.7% | inhibition at 10 µM (CDK2/Cyclin E1; independent experiment 2): 96.3% | inhibition at 10 µM (CDK18/Cyclin Y; average of experiments): 91.7% | inhibition at 10 µM (CDK18/Cyclin Y; independent experiment 1): 86.8% | inhibition at 10 µM (CDK18/Cyclin Y; independent experiment 2): 96.6% | inhibition at 10 µM (CDK15/Cyclin Y; average of experiments): 72.5% | inhibition at 10 µM (CDK15/Cyclin Y; independent experiment 1): 72.6% | inhibition at 10 µM (CDK15/Cyclin Y; independent experiment 2): 72.5% | inhibition at 10 µM (CDK17/Cyclin Y; average of experiments): 86.9% | inhibition at 10 µM (CDK17/Cyclin Y; independent experiment 1): 86.4% | inhibition at 10 µM (CDK17/Cyclin Y; independent experiment 2): 87.4% | inhibition at 10 µM (CDK10/Cyclin L2; average of experiments): 30% | inhibition at 10 µM (CDK10/Cyclin L2; independent experiment 1): 32.9% | inhibition at 10 µM (CDK10/Cyclin L2; independent experiment 2): 27.2% | inhibition at 10 µM (CDK19/Cyclin C; average of experiments): 52.6% | inhibition at 10 µM (CDK19/Cyclin C; independent experiment 1): 63.4% | inhibition at 10 µM (CDK19/Cyclin C; independent experiment 2): 41.9% | inhibition at 10 µM (CDK7; average of experiments): 94.1% | inhibition at 10 µM (CDK7; independent experiment 1): 95.3% | inhibition at 10 µM (CDK7; independent experiment 2): 92.8% | IC50 (CDK7; average (± SEM where n=3), read-out: CDK7 IC50): 0.24 µM | IC50 (CDK7; independent experiment 1, read-out: CDK7 IC50): 0.24 µM | IC50 (CDK7; independent experiment 2, read-out: CDK7 IC50): 0.23 µM | IC50 (CDK7; live HEK-293, 2 h, mean ± S.E.M. (n=3) or mean (n=2), read-out: IC50 for CDK/cyclin complexes, CDK7): 0.24 µM | inhibition at 10 µM (CDK6/Cyclin D1; average of experiments): 88.3% | inhibition at 10 µM (CDK6/Cyclin D1; independent experiment 1): 84.9% | inhibition at 10 µM (CDK6/Cyclin D1; independent experiment 2): 91.6% | IC50 (CDK6/Cyclin D1; average (± SEM where n=3)): 0.43 µM | IC50 (CDK6/Cyclin D1; independent experiment 1): 0.374 µM | IC50 (CDK6/Cyclin D1; independent experiment 2): 0.48 µM | inhibition at 10 µM (CDK20/Cyclin H; independent experiment 1): 5.8% | inhibition at 10 µM (CDK20/Cyclin H; independent experiment 2): 16.7% | inhibition at 10 µM (CDK9/Cyclin K; average of experiments): 86% | inhibition at 10 µM (CDK9/Cyclin K; independent experiment 1): 87.8% | inhibition at 10 µM (CDK9/Cyclin K; independent experiment 2): 84.1% | inhibition at 10 µM (CDK14/Cyclin Y; average of experiments): 81.4% | inhibition at 10 µM (CDK14/Cyclin Y; independent experiment 1): 81% | inhibition at 10 µM (CDK14/Cyclin Y; independent experiment 2): 81.8% | inhibition at 10 µM (CDK1/Cyclin E1; average of experiments): 71.4% | inhibition at 10 µM (CDK1/Cyclin E1; independent experiment 1): 72% | inhibition at 10 µM (CDK1/Cyclin E1; independent experiment 2): 70.8% | IC50 (CDK1/Cyclin E1; average (± SEM where n=3)): 0.82 µM | IC50 (CDK1/Cyclin E1; independent experiment 1): 0.8 µM | IC50 (CDK1/Cyclin E1; independent experiment 2): 0.85 µM | inhibition at 10 µM (CDK11B/Cyclin L2; average of experiments): 56.3% | inhibition at 10 µM (CDK11B/Cyclin L2; independent experiment 1): 57.8% | inhibition at 10 µM (CDK11B/Cyclin L2; independent experiment 2): 54.7% | inhibition at 10 µM (CDK3/Cyclin E1; average of experiments): 93.2% | inhibition at 10 µM (CDK3/Cyclin E1; independent experiment 1): 93.4% | inhibition at 10 µM (CDK3/Cyclin E1; independent experiment 2): 93% | IC50 (CDK3/Cyclin E1; average (± SEM where n=3)): 0.28 µM | IC50 (CDK3/Cyclin E1; independent experiment 1): 0.165 µM | IC50 (CDK3/Cyclin E1; independent experiment 2): 0.394 µM | inhibition at 10 µM (CDK4/Cyclin D1; average of experiments): 83.1% | inhibition at 10 µM (CDK4/Cyclin D1; independent experiment 1): 82.5% | inhibition at 10 µM (CDK4/Cyclin D1; independent experiment 2): 83.8% | IC50 (CDK4/Cyclin D1; average (± SEM where n=3)): 0.32 µM | IC50 (CDK4/Cyclin D1; independent experiment 1): 0.122 µM | IC50 (CDK4/Cyclin D1; independent experiment 2): 0.51 µM | inhibition at 10 µM (CDK8/Cyclin C; average of experiments): 57.2% | inhibition at 10 µM (CDK8/Cyclin C; independent experiment 1): 65.2% | inhibition at 10 µM (CDK8/Cyclin C; independent experiment 2): 49.1% | inhibition at 10 µM (CDK5/CDK5R1; average of experiments): 92% | inhibition at 10 µM (CDK5/CDK5R1; independent experiment 1): 89.9% | inhibition at 10 µM (CDK5/CDK5R1; independent experiment 2): 94.2% | IC50 (CDK5/CDK5R1; average (± SEM where n=3)): 0.36 µM | IC50 (CDK5/CDK5R1; independent experiment 1): 0.422 µM | IC50 (CDK5/CDK5R1; independent experiment 2): 0.3 µM | inhibition at 10 µM (CDK12/Cyclin K; average of experiments): 31.4% | inhibition at 10 µM (CDK12/Cyclin K; independent experiment 1): 33% | inhibition at 10 µM (CDK12/Cyclin K; independent experiment 2): 29.9%
